# Test results: article PMC8699884, “High-Throughput Functional Analysis of CFTR and Other Apically Localized Proteins in iPSC-Derived Human Intestinal Organoids” (Cells, 2021)
# Target: T1, SLC6A14 (Homo sapiens, UniProt Q9UN76)
# T1 construct: endogenous transporter in opened human intestinal organoids
# T1 sequence (Q9UN76 1-642): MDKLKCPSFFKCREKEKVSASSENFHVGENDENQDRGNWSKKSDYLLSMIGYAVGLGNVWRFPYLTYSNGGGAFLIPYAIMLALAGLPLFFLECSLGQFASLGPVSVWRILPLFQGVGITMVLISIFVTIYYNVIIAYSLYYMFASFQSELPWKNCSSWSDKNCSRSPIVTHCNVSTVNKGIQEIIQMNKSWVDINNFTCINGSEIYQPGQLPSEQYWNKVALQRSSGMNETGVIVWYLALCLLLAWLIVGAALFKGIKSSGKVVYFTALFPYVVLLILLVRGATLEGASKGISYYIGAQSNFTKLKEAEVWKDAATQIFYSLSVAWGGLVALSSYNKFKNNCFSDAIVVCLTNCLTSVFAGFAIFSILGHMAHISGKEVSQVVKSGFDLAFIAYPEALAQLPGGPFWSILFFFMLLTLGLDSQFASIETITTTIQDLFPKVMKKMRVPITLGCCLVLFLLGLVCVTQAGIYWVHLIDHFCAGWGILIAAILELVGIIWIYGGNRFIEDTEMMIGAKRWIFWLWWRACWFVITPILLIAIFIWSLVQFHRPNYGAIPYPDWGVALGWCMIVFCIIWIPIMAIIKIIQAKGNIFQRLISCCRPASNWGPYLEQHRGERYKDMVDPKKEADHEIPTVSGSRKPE
# Assay: FLIPR membrane potential (AAC) assay, α-MT-sensitive electrogenic uptake at […]
# Type: cell-based
smiles,measurement,value
N=C(N)NCCC[C@H](N)C(=O)O [L-Arg],"FLIPR membrane potential (AAC) assay, α-MT-sensitive electrogenic uptake at 1 mM",the addition of arginine (L-Arg) to the apical surface of these opened organoids evokes apical membrane depolarization
